Laboratory results taken from US6258790A, “Antisense modulation of integrin α4 expression” (Isis Pharmaceuticals, Inc., priority 1999, dated 2001).
“And” between values parts separate entries of the source, which are not always exact repeats. Identical values can stand only once.

Tests used:
[1] = test system: murine integrin α4; test: Antisense inhibition of murine integrin α4 protein expression in IC-21 macrophage cells (flow cytometry, CD49d-PE); format: cell-based, mouse; conditions: for % Control (integrin α4 protein) / % Inhib (integrin α4 protein): Table 11
Method: Murine IC-21 macrophage cells (American Type Culture Collection, Manassas, Va.) were used for further study. Additional oligonucleotides were designed to target murine integrin α4. These are shown in Table 10; all 2' MOE nucleotides are shown in bold and remaining positions are 2' deoxy. All 2'-MOE cytosines in these compounds are 5' methylcytosines. IC-21 cells were seeded at 5×10^4 cell/well plates two days before assay. […] Wells were triplicates.
Cells (triplicates) were seeded at 2.5×10^4 cells/well in 24-well plates the day before treatment. Oligonucleotide concentrations were 0.2, 1, 5, 25 and 50 nM in 3 ug/ml LIPOFECTIN. Cells were harvested with 2 mM EDTA for 4 minutes, then 1 ml of 2% BSA, 0.2% azide was added per contents of each well.
IC-21 cells were treated with 0.3, 1, 3, 10 and 30 nM oligonucleotide with 3 ug/ml LIPOFECTIN for 4 hours. Cells were incubated for 24 hours, harvested with trypsin, stained with 2 ug/ml CD49d-PE and rat IgG2B as in previous examples.
These compounds were tested for ability to inhibit integrin α4 protein expression.

[2] = test system: human integrin α4; test: Inhibition of human integrin α4 protein levels by antisense oligonucleotides (LIPOFECTIN, flow cytometry with CD49d-FITC) in A375 melanoma cells; format: cell-based; design: % Inhib.: tested at 200 nM; conditions: Table 24; A375 cells; lipofectin; as Example 8
From the text: Integrin α4 protein levels can be quantitated in a variety of ways well known in the art, such as immunoprecipitation, Western blot analysis (immunoblotting), ELISA or fluorescence-activated cell sorting (FACS). Antibodies directed to integrin α4 can be identified and obtained from a variety of sources, such as the MSRS catalog of antibodies (Aerie Corporation, Birmingham, Mich.), or can be prepared via conventional antibody generation methods.
Target sites are indicated by nucleotide numbers, as given in the sequence source reference (GenBank accession no. L12002), to which the oligonucleotide binds. All compounds in Table 1 are 18 nucleotides in length, with a phosphorothioate backbone and a centered 10-base deoxynucleotide gap flanked by 2'-methoxyethoxy (2'MOE) wings. Human A375 melanoma cells (American Type Culture Collection, Manassas, Va.) were plated at 2000 cells/cm^2 two days before oligonucleotide treatment. Cells were treated with oligonucleotides at a dose of 200 nM oligonucleotide and 6 ug/ml LIPOFECTIN for four hours. Cells were incubated overnight and harvested with 2 mM EDTA in PBS. Cells were washed in 2% bovine serum albumin, 0.2% sodium azide in D-PBS at 4° C. Cells were centrifuged at 200×g, and the supernatant was decanted. […] Antibodies were incubated with the cells for 30 minutes at 4° C. in the dark, under gentle agitation. Cells were washed again as above and then resuspended in 0.3 ml of FacsFlow buffer with 0.5% formaldehyde. Cells were analyzed on Becton Dickinson FACScan. Results are expressed as percentage of control expression based on mean fluorescence intensity.
Cells were harvested with trypsin at 48 and 72 hours after oligonucleotide treatment and stained with 2 ug/ml CD49d-FITC as in the previous example.
Where backbones are mixed, linkages are shown as "s" for phosphorothioate (P=S or PS) and "o" for phosphodiester (P=O or PO). Where target region is indicated as `M62841,` oligonucleotides are targeted to the promotor region whose sequence is described in GenBank Accession No. M62841. Remaining oligonucleotides are targeted to the sequence described in Genbank Accession No. L12002 and their target sites on the L12002 sequence are indicated.
Target sites refer to nucleotide numbers on the target sequence (GenBank Accession No. L12002) to which the oligonucleotides hybridize.
Oligonucleotides were synthesized as "gapmers" consisting of a 9-nucleotide region of deoxynucleotides flanked by three 2'-O-methoxyethyl(2'-MOE) nucleotides on the 5' end and eight 2'-MOE nucleotides on the 3' end. 2'-MOE nucleotides are shown in bold in the table. Oligonucleotides were synthesized with phosphorothioate backbones throughout, and all cytosines are 5-methylcytosines.

[3] = IC-21 cells, 25 nM, triplicates
[4] = IC-21 cells, 25 nM, triplicates, 0.025 µM

16428 (antisense GGCCACTGACCAGAGTTGCA; phosphorothioate, 2'-MOE/deoxy gapmer, further chemistry not given here) [compound 16428]
% Control (integrin α4 protein) [1, 3]: 67% | % Inhib (integrin α4 protein) [1, 3]: 33%

16429 (antisense GGCCACTGACCAGAGTTGCA; phosphorothioate, 2'-MOE/deoxy gapmer, further chemistry not given here) [compound 16429]
% Control (integrin α4 protein) [1, 3]: 60% | % Inhib (integrin α4 protein) [1, 3]: 40%

16430 (antisense GGCCACTGACCAGAGTTGCA; phosphorothioate, 2'-MOE/deoxy gapmer, further chemistry not given here) [compound 16430]
% Control (integrin α4 protein) [1, 3]: 50% | % Inhib (integrin α4 protein) [1, 4]: 50% and > 50%

16431 (CCGCAGCCATGCGCTCTTGG; phosphorothioate, 2'-MOE/deoxy, further chemistry not given here) [compound 16431]
IC50 ([1]; IC-21 cells): ~1 nM | % Control (integrin α4 protein) [1, 3]: 35% | % Inhib (integrin α4 protein) [1, 4]: 65% and > 50% | % Inhib. ([1]; Table 12, 0.2 nM, triplicates): 18% | % of control ([1]; Table 12, 0.2 nM, triplicates): 82% | % Inhib. ([1]; Table 12, 1 nM, triplicates): 43% | % of control ([1]; Table 12, 1 nM, triplicates): 57% | % Inhib. ([1]; Table 12, 5 nM, triplicates): 66% | % of control ([1]; Table 12, 5 nM, triplicates): 34% | % Inhib. ([1]; Table 12, 25 nM, triplicates): 68% | % of control ([1]; Table 12, 25 nM, triplicates): 32% | % Inhib. ([1]; Table 12, 50 nM, triplicates): 70% | % of control ([1]; Table 12, 50 nM, triplicates): 30%

16432 (CCGCAGCCATGCGCTCTTGG; phosphorothioate, 2'-MOE/deoxy, further chemistry not given here) [compound 16432]
% Control (integrin α4 protein) [1, 3]: 53% | % Inhib (integrin α4 protein) [1, 3]: 47%

16434 (CACCTCGCTTCCGCAGCCAT; phosphorothioate, 2'-MOE/deoxy, further chemistry not given here) [compound 16434]
% Control (integrin α4 protein) [1, 3]: 33% | % Inhib (integrin α4 protein) [1, 4]: 67% and > 50%

16435 (CACCTCGCTTCCGCAGCCAT; phosphorothioate, 2'-MOE/deoxy, further chemistry not given here) [compound 16435]
% Control (integrin α4 protein) [1, 3]: 30% | % Inhib (integrin α4 protein) [1, 4]: 70% and > 50%

16436 (CACCTCGCTTCCGCAGCCAT; phosphorothioate, 2'-MOE/deoxy, further chemistry not given here) [compound 16436]
% Control (integrin α4 protein) [1, 3]: 47% | % Inhib (integrin α4 protein) [1, 4]: 53% and > 50%

16437 (CGCTTCCGCAGCCATGCGCT; phosphorothioate, 2'-MOE/deoxy, further chemistry not given here) [compound 16437]
% Control (integrin α4 protein) [1, 3]: 36% | % Inhib (integrin α4 protein) [1, 4]: 64% and > 50%

16477 (CGGACCAGTACCAGGGTTAC; phosphorothioate, 2'-deoxy, further chemistry not given here) [compound 16477]
% Control (integrin α4 protein) [1, 3]: 96%

16479 (ACCTCCTCGCTCACGCGCTA; phosphorothioate DNA, further chemistry not given here) [compound 16479]
% Control (integrin α4 protein) [1, 3]: 96%

17045 (CCGCAGCCATGCGCTCTTGG; phosphorothioate, 2'-modified, further chemistry not given here) [compound 17045]
% Control ([1]; Table 16, 0.3 nM): 109% | % Control ([1]; Table 16, 1 nM): 65% | % Inhib. ([1]; Table 16, 1 nM): 35% | % Control ([1]; Table 16, 3 nM): 34% | % Inhib. ([1]; Table 16, 3 nM): 66% | % Control ([1]; Table 16, 10 nM): 12% | % Inhib. ([1]; Table 16, 10 nM): 88%

17046 (CCGCAGCCATGCGCTCTTGG; phosphorothioate, 2'-modified, further chemistry not given here) [compound 17046]
% Control ([1]; Table 16, 0.3 nM): 161% | % Control ([1]; Table 16, 1 nM): 123% | % Control ([1]; Table 16, 3 nM): 125% | % Control ([1]; Table 16, 10 nM): 75% | % Inhib. ([1]; Table 16, 10 nM): 25%

17047 (CCGCAGCCATGCGCTCTTGG; phosphorothioate, 2'-modified, further chemistry not given here) [compound 17047]
% Control ([1]; Table 16, 0.3 nM): 132% | % Control ([1]; Table 16, 1 nM): 107% | % Control ([1]; Table 16, 3 nM): 77% | % Inhib. ([1]; Table 16, 3 nM): 23% | % Control ([1]; Table 16, 10 nM): 36% | % Inhib. ([1]; Table 16, 10 nM): 67%

17048 (GCCGACACCCGTTCGTTCGG; phosphorothioate, 2'-modified, further chemistry not given here) [compound 17048]
% Control ([1]; Table 16, 0.3 nM): 159% | % Control ([1]; Table 16, 1 nM): 159% | % Control ([1]; Table 16, 3 nM): 150% | % Control ([1]; Table 16, 10 nM): 119%

107240 (antisense AGAGTTATCTGTGACTTCAC; chemistry not given here) [compound 107240]
% Control [2]: 40%

107241 (antisense GATACTGAGGTCCTCTTCCG; chemistry not given here) [compound 107241]
% Control [2]: 36%

107242 (antisense TGAGATCAACAGAAGTACAA; chemistry not given here) [compound 107242]
% Control [2]: 44%

107243 (antisense CCAGCCTTCCACATAACATA; chemistry not given here) [compound 107243]
% Control [2]: 39%

107244 (antisense AGGATAGATTTGTATTGTCT; chemistry not given here) [compound 107244]
% Control [2]: 37%

107246 (antisense TAATCATCATTGCTTTTACT; chemistry not given here) [compound 107246]
% Control [2]: 42%

107247 (antisense AAGAAGTCCTTAATCATCAT; chemistry not given here) [compound 107247]
% Control [2]: 65% | % Inhib. [2]: 35%

107249 (antisense CTTGTAAACAGTGTCTTTTA; chemistry not given here) [compound 107249]
% Control [2]: 38%

107250 (antisense GAGTAAAAGAAGTCCAAACA; chemistry not given here) [compound 107250]
% Control [2]: 57% | % Inhib. [2]: 43%

107251 (antisense CCTTGCATGAAGACATAATA; chemistry not given here) [compound 107251]
% Control [2]: 40%

107253 (antisense TCTTTGGCTGTATTATTACC; chemistry not given here) [compound 107253]
% Control [2]: 29%

107254 (antisense TGCTTTAGTGTTTCTCTACC; chemistry not given here) [compound 107254]
% Control [2]: 33%

107256 (antisense GAGGCAAGCACATATGGTAA; chemistry not given here) [compound 107256]
% Control [2]: 45%

107257 (antisense TGAAATGAACCTCTGCCCAC; chemistry not given here) [compound 107257]
% Control [2]: 44%

107258 (antisense TTAAAGTGATAATGGTCCAC; chemistry not given here) [compound 107258]
% Control [2]: 39%

107260 (antisense TTTGCCAGTTTGGCCTATAA; chemistry not given here) [compound 107260]
% Control [2]: 50%
